“And” between values parts separate entries of the source, which are not always exact repeats. Identical values can stand only once. The source made the active and inactive calls. No cut-off for these calls is given here.
Assays:
[1] = Cytotoxicity against mouse Melan-a cells assessed as cell viability at 30 uM; type: cell-based; details: for viability at 30 µM: Melan-a cells, read-out: Activity
Cavia porcellus = assay: Antimelanogenic activity in guinea pig skin assessed as inhibition of UVB-induced pigmentation at 10 ug administered topically bid for 4 weeks; type: functional, organism-based

Row | SMILES | viability at 30 µM [1] [%] | further results
1 | Cc1cccc(NC(=O)c2ccco2)c1 | -1.3 | –
2 | COc1cccc(C(=O)Nc2ccc(C(C)=O)cc2)c1 | -5 | –
3 | Cc1cc(C)cc(NC(=O)c2ccco2)c1 | 14.2 | –
4 | COc1ccc(C(=O)Nc2ccccc2OC)cc1 | -2.6 | –
5 | COc1ccc(NC(=O)c2ccccc2C)c(OC)c1 | -3.5 | –
6 | CCCCOc1ccc(NC(=O)c2ccc(C#N)cc2)cc1 | -4.4 | –
7 | COc1cccc(NC(=O)c2ccccc2C)c1 | 13.4 | –
8 | CCCCOc1ccc(NC(=O)c2ccccc2C)cc1 | 9.9 | –
9 | Cc1cccc(NC(=O)c2cccc(C)c2)c1 | -0.1 | –
10 | COc1cccc(NC(=O)c2cccc(OC)c2)c1 | -8.4 | –
11 | Cc1cccc(NC(=O)c2ccccc2C)c1 | 5.8 | –
12 | COc1ccc(C(=O)Nc2cc(C(F)(F)F)cc(C(F)(F)F)c2)cc1 | 21 | –
13 | CCc1ccc(C(=O)Nc2cc(C(F)(F)F)cc(C(F)(F)F)c2)cc1 | 16.5 | –
14 | COc1cc(NC(=O)c2cccc(C)c2)cc(OC)c1 | -12.6 | –
15 | COc1ccc(C(=O)Nc2cc(OC)ccc2OC)cc1 | -8.3 | –
16 | CCCCOc1ccc(NC(=O)c2ccco2)cc1 | 3.7 | –
17 | COc1ccccc1NC(=O)c1ccc(C#N)cc1 | -3.1 | –
18 | COc1cccc(C(=O)Nc2cc(OC)ccc2OC)c1 | 17.8 | –
19 | COC(=O)c1cccc(NC(=O)c2ccc(C#N)cc2)c1 | 0.8 | –
20 | Cc1ccc(NC(=O)c2ccco2)cc1 | 7.9 | –
21 | COc1ccc(NC(=O)c2ccc(OC)cc2)cc1 | -10.6 | –
22 | COc1ccc(NC(=O)c2cccc(OC)c2)cc1 | 0.5 | –
23 | COc1ccccc1NC(=O)c1ccccc1C | 7 | –
24 | COc1ccc(OC)c(NC(=O)c2ccco2)c1 | -17 | –
25 | CCCCOc1ccc(NC(=O)c2ccc(C)cc2)cc1 | -2.4 | –

Row | SMILES | viability at 30 µM [1] [%] | further results
26 | COC(=O)c1ccccc1NC(=O)c1ccccc1C | 9.7 | –
27 | N#Cc1ccc(C(=O)Nc2cc(C(F)(F)F)cc(C(F)(F)F)c2)cc1 | 33.3 | –
28 | COc1ccc(NC(=O)c2ccc(C#N)cc2)c(OC)c1 | 7.2 | –
29 | COc1cc(NC(=O)c2ccccc2C)cc(OC)c1 | 6.4 | –
30 | COc1ccc(OC)c(NC(=O)c2ccc(C#N)cc2)c1 | -1.7 | –
31 | CCc1ccc(C(=O)Nc2ccccc2C(=O)OC)cc1 | 18.9 | –
32 | COc1cccc(NC(=O)c2ccc(C)cc2)c1 | 2.7 | –
33 | COC(=O)c1ccc(NC(=O)c2cccc(OC)c2)cc1 | 13.7 | –
34 | Cc1cccc(NC(=O)c2ccc(C#N)cc2)c1 | 11.1 | –
35 | COc1ccc(NC(=O)c2c(OC)cccc2OC)cc1 | 10.2 | –
36 | COc1ccc(C(=O)Nc2ccc(OC)cc2OC)cc1 | -9.4 | –
37 | CCc1ccc(C(=O)Nc2ccc(C(=O)OC)cc2)cc1 | 2 | –
38 | COc1ccc(OC)c(NC(=O)c2ccc(C)cc2)c1 | -3.2 | –
39 | Cc1cc(C)cc(NC(=O)c2cccc(C)c2)c1 | 6 | –
40 | COC(=O)c1ccc(NC(=O)c2ccc(OC)cc2)cc1 | -5.6 | –
41 | COc1ccc(NC(=O)c2ccccc2C)cc1 | 12.8 | –
42 | CCc1ccc(C(=O)Nc2cccc(C(=O)OC)c2)cc1 | 37 | –
43 | CCCCOc1ccc(NC(=O)c2ccc(CC)cc2)cc1 | -10.8 | –
44 | COc1ccc(NC(=O)c2ccc(C)cc2)c(OC)c1 | 14.4 | –
45 | CCc1ccc(C(=O)Nc2cc(OC)cc(OC)c2)cc1 | 10.1 | –
46 | CCc1ccc(C(=O)Nc2ccc(C(C)=O)cc2)cc1 | 3.4 | –
47 | COc1ccc(NC(=O)c2ccc(C)cc2)cc1 | 4.9 | –
48 | COc1cccc(C(=O)Nc2cc(C)cc(C)c2)c1 | 32 | Activity (Cavia porcellus): Active
49 | COC(=O)c1cccc(NC(=O)c2cccc(OC)c2)c1 | 20.1 | –
50 | COc1cccc(NC(=O)c2cccc(C)c2)c1 | -0.3 | –

Row | SMILES | viability at 30 µM [1] [%] | further results
51 | COC(=O)c1ccccc1NC(=O)c1cccc(C)c1 | 29.6 | –
52 | COC(=O)c1ccc(NC(=O)c2ccc(C#N)cc2)cc1 | 14.2 | –
53 | COc1cc(NC(=O)c2ccc(C)cc2)cc(OC)c1 | 19.2 | –
54 | COC(=O)c1cccc(NC(=O)c2ccccc2C)c1 | 4.6 | –
55 | COc1ccccc1NC(=O)c1ccc(C)cc1 | 18.5 | –
56 | CC(=O)c1ccc(NC(=O)c2ccccc2C)cc1 | 0.1 | –
57 | COc1ccc(C(=O)Nc2cc(OC)cc(OC)c2)cc1 | 13.6 | –
58 | CC(=O)c1ccc(NC(=O)c2ccc(C)cc2)cc1 | 11.2 | –
59 | COc1ccc(C(=O)Nc2ccc(C(C)=O)cc2)cc1 | 0.7 | –
60 | COC(=O)c1cccc(NC(=O)c2ccc(OC)cc2)c1 | 18.8 | –
61 | COC(=O)c1ccc(NC(=O)c2cccc(C)c2)cc1 | 12.9 | –
62 | CCCCOc1ccc(NC(=O)c2cccc(OC)c2)cc1 | 19.1 | –
63 | CCc1ccc(C(=O)Nc2ccc(C)cc2)cc1 | 1.8 | –
64 | Cc1cc(C)cc(NC(=O)c2ccccc2C)c1 | 25.6 | –
65 | CCCCOc1ccc(NC(=O)c2ccc(OC)cc2)cc1 | 1 | –
66 | COC(=O)c1ccccc1NC(=O)c1cccc(OC)c1 | 11.1 | –
67 | COc1cc(NC(=O)c2ccco2)cc(OC)c1 | -1.3 | –
68 | COC(=O)c1ccc(NC(=O)c2ccc(C)cc2)cc1 | 11.2 | –
69 | COc1cccc(C(=O)Nc2cccc(C)c2)c1 | 12 | –
70 | CCc1ccc(C(=O)Nc2cc(C)cc(C)c2)cc1 | – | Activity ([1]; melan-a, 30 µM): 41.5% and > 90%
71 | COc1cccc(C(=O)Nc2ccccc2OC)c1 | 10.1 | –
72 | Cc1ccc(NC(=O)c2ccc(C#N)cc2)cc1 | 10.9 | –
73 | Cc1ccccc1C(=O)Nc1cc(C(F)(F)F)cc(C(F)(F)F)c1 | 15.1 | –
74 | Cc1cccc(C(=O)Nc2cc(C(F)(F)F)cc(C(F)(F)F)c2)c1 | -2.3 | –
75 | Cc1ccc(NC(=O)c2ccc(C)cc2)cc1 | 13.9 | –

Row | SMILES | viability at 30 µM [1] [%] | further results
76 | Cc1ccc(C(=O)Nc2cccc(C)c2)cc1 | 14.3 | –
77 | CC(=O)c1ccc(NC(=O)c2ccco2)cc1 | -2.6 | –
78 | COc1cccc(NC(=O)c2ccc(C#N)cc2)c1 | -9.4 | –
79 | Cc1ccc(C(=O)Nc2cc(C)cc(C)c2)cc1 | 30.9 | –
80 | COc1ccc(C(=O)Nc2cccc(OC)c2)cc1 | 0.6 | –
81 | Cc1ccc(NC(=O)c2ccccc2C)cc1 | -0.2 | –
82 | COC(=O)c1cccc(NC(=O)c2cccc(C)c2)c1 | 10.5 | –
83 | CCc1ccc(C(=O)Nc2cccc(C)c2)cc1 | -2.2 | –
84 | CCc1ccc(C(=O)Nc2ccc(OC)cc2OC)cc1 | -6.5 | –
85 | CCc1ccc(C(=O)Nc2cccc(OC)c2)cc1 | 6.3 | –
86 | CCc1ccc(C(=O)Nc2ccccc2OC)cc1 | 13.5 | –
87 | COC(=O)c1ccccc1NC(=O)c1ccc(C#N)cc1 | 8 | –
88 | COc1ccc(C(=O)Nc2cccc(C)c2)cc1 | -1.7 | –
89 | COc1ccc(NC(=O)c2cccc(C)c2)c(OC)c1 | 3.2 | –
90 | COc1ccccc1NC(=O)c1cccc(C)c1 | 11.1 | –
91 | COC(=O)c1ccccc1NC(=O)c1ccc(OC)cc1 | 31.1 | –
92 | CCc1ccc(C(=O)Nc2cc(OC)ccc2OC)cc1 | -19.8 | –
93 | CC(=O)c1ccc(NC(=O)c2cccc(C)c2)cc1 | -5.9 | –
94 | COC(=O)c1ccccc1NC(=O)c1ccc(C)cc1 | 20.1 | –
95 | O=C(Nc1cc(C(F)(F)F)cc(C(F)(F)F)c1)c1ccco1 | 31.9 | –
96 | COC(=O)c1cccc(NC(=O)c2ccco2)c1 | 0.4 | –
97 | COc1ccc(OC)c(NC(=O)c2ccccc2C)c1 | 8.6 | –
98 | CCCCOc1ccc(NC(=O)c2cccc(C)c2)cc1 | 4.8 | –
99 | COc1ccc(NC(=O)c2ccco2)cc1 | 13.6 | –
100 | COc1ccc(OC)c(NC(=O)c2cccc(C)c2)c1 | 0.3 | –

Row | SMILES | viability at 30 µM [1] [%] | further results
101 | COC(=O)c1ccc(NC(=O)c2ccco2)cc1 | -8.4 | –
102 | CCc1ccc(C(=O)Nc2ccc(OC)cc2)cc1 | -9.9 | –
103 | COc1cc(NC(=O)c2ccc(C#N)cc2)cc(OC)c1 | 9.6 | –
104 | COc1ccccc1NC(=O)c1ccco1 | -5.4 | –
105 | COc1ccc(NC(=O)c2cccc(C)c2)cc1 | -0.4 | –
106 | COC(=O)c1cccc(NC(=O)c2ccc(C)cc2)c1 | 16.4 | –
107 | COC(=O)c1ccccc1NC(=O)c1ccco1 | -2.3 | –
108 | CC(=O)c1ccc(NC(=O)c2ccc(C#N)cc2)cc1 | 6.9 | –
109 | Cc1cc(C)cc(NC(=O)c2ccc(C#N)cc2)c1 | 31.6 | –
110 | COc1cccc(NC(=O)c2ccco2)c1 | 0.4 | –
111 | COc1ccc(NC(=O)c2ccco2)c(OC)c1 | -24.1 | –
112 | Cc1ccc(C(=O)Nc2cc(C(F)(F)F)cc(C(F)(F)F)c2)cc1 | 0.3 | –
113 | COC(=O)c1ccc(NC(=O)c2ccccc2C)cc1 | 0.8 | –
114 | COc1cc(NC(=O)c2cccc(OC)c2)cc(OC)c1 | 9.6 | –
115 | COc1ccc(C(=O)Nc2cc(C)cc(C)c2)cc1 | 31.9 | –
116 | COc1cccc(C(=O)Nc2ccc(C)cc2)c1 | 7.5 | –
117 | Cc1ccc(NC(=O)c2cccc(C)c2)cc1 | -2.4 | –
118 | COc1cccc(C(=O)Nc2ccc(OC)cc2OC)c1 | -3.9 | –
119 | COc1cccc(C(=O)Nc2cc(C(F)(F)F)cc(C(F)(F)F)c2)c1 | 9 | –
120 | COc1ccc(C(=O)Nc2ccc(C)cc2)cc1 | 0.7 | –
121 | COc1ccc(NC(=O)c2ccc(C#N)cc2)cc1 | 8.8 | –
